In general, viability refers to a read-out of living cells in per cent, often relative to untreated cells.

Data set [1] deals with T1, CTL2-GFP (C. trachomatis L2/434/Bu, GFP-expressing).
T1 construct: L2/434/Bu, GFP-expressing
Description: microbe, parasite or virus in culture. Details: Intracellular C. trachomatis growth in HeLa cells, bulk GFP fluorescence relative to DMSO. The note with it: Chlamydia trachomatis, HeLa, 28.5 h; bulk GFP, mean of 2; read-out: % of control remaining. How it is done: MICs were calculated as described above.

Data set [2] is described as follows: in vitro. As to conditions: human, hela cells, % viability.
Data set [3] in a line: in vitro. The note with it: human, hela cells; bulk resorufin, mean of 2. Details: Viability of infected HeLa host cells, resazurin conversion, bulk resorufin fluorescence relative to DMSO.
Data set [4] relates to T2, C. trachomatis L2/434/Bu expressing GFP (CTL2-GFP).
T2 construct: L2/434/Bu GFP intracellular growth in HeLa cells
Description: microbe, parasite or virus in culture. Details: C. trachomatis total inclusion area by high-content imaging, normalised to DMSO. The note with it: Chlamydia trachomatis, HeLa, 28.5 h; total inclusion area; read-out: % of control remaining. A digest of the protocol: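 Infected cells treated with library compounds were read for bulk GFP (chlamydial growth) and resorufin fluorescence (host viability), then fixed, Hoechst-stained and imaged. Inclusion area and number from GFP, plus nuclei counts, served as additional growth and viability proxies; MICs derived as previously described.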

For the compound `CCN(CC)CCNc1nc(-c2cccc(Cl)c2)nc2ccccc12` [CBK267265C], in data set [1], the activity at 1 µM is 108%, the activity at 5 µM is 98.1% and the activity at 10 µM worked out at 55.5%. For the same compound, the viability at 28.5 h, 10 µM in “in vitro [2]” was determined as 90.7%. Moreover, in “in vitro [3]”, the viability at 28.5 h, 1 µM was 104%; the viability at 28.5 h, 5 µM worked out at 104%; the viability at 28.5 h, 10 µM was found to be 108%. In data set [4], the activity at 1 µM turned out to be 85%, the activity at 5 µM is 45.3% and the activity at 10 µM was found to be 26.4%.

Regarding `Cc1nc(C(=N)N)nc2ccccc12` [CBK010368C], in data set [1], the activity at 1 µM amounted to 94.1%, the activity at 5 µM is 66.1% and the activity at 10 µM was 65.1%. Further, in “in vitro [2]”, the viability at 28.5 h, 10 µM worked out at 86.3%. In “in vitro [3]”, the viability at 28.5 h, 1 µM is 98.3%; the viability at 28.5 h, 5 µM came out at 94.3%; the viability at 28.5 h, 10 µM was 88.2%. In data set [4], the activity at 1 µM was 60.8%, the activity at 5 µM was 35.9% and the activity at 10 µM was determined as 41.3%.

On to `NCCCNc1ncc(C(=O)NCc2ccccc2)c(NCC2CCCCC2)n1` [CBK215386], for which, in data set [1], the activity at 1 µM was 97.9%, the activity at 5 µM was 89.2% and the activity at 10 µM is 32.4%. Further, in the data set “in vitro [2]”, the viability at 28.5 h, 10 µM is 103%. In addition, in the data set “in vitro [3]”, the viability at 28.5 h, 1 µM worked out at 113%; the viability at 28.5 h, 5 µM came to 116%; the viability at 28.5 h, 10 µM worked out at 96.6%. In addition, in data set [4], the activity at 1 µM is 95.7%, the activity at 5 µM worked out at 73.1% and the activity at 10 µM stood at 19.8%.

With `CC(=O)c1cc(-c2cccnc2)cs1` [CBK017637], in data set [1], the activity at 1 µM was 140%, the activity at 5 µM came to 120% and the activity at 10 µM was determined as 123%. Moreover, in “in vitro [2]”, the viability at 28.5 h, 10 µM worked out at 82.4%. In addition, in “in vitro [3]”, the viability at 28.5 h, 1 µM is 113%; the viability at 28.5 h, 5 µM amounted to 110%; the viability at 28.5 h, 10 µM is 110%. Further, in data set [4], the activity at 1 µM was found to be 86.9%, the activity at 5 µM turned out to be 83.4% and the activity at 10 µM was determined as 98.2%.

On to `CCn1c2c(c3cc(S(=O)(=O)c4ccc(C(F)(F)F)cc4)ccc31)CCNCC2` [CBK018453C], for which, in data set [1], the activity at 1 µM came out at 143%, the activity at 5 µM is 54.5% and the activity at 10 µM came out at 5.22%. Also, in “in vitro [2]”, the viability at 28.5 h, 10 µM is 97.5%. In “in vitro [3]”, the viability at 28.5 h, 1 µM was 94.5%; the viability at 28.5 h, 5 µM was 89.4%; the viability at 28.5 h, 10 µM is 91.9%. In data set [4], the activity at 1 µM came to 133%, the activity at 5 µM stood at 58.6% and the activity at 10 µM is 12.8%.

In the case of `Cc1ccc(C(=O)NC2CCCC2)cc1[N+](=O)[O-]` [CBK001993], in data set [1], the activity at 1 µM stood at 123%, the activity at 5 µM was 123% and the activity at 10 µM turned out to be 110%. Also, in “in vitro [2]”, the viability at 28.5 h, 10 µM worked out at 102%. Moreover, in “in vitro [3]”, the viability at 28.5 h, 1 µM was 112%; the viability at 28.5 h, 5 µM was determined as 110%; the viability at 28.5 h, 10 µM came to 104%. In data set [4], the activity at 1 µM amounted to 116%, the activity at 5 µM stood at 89.8% and the activity at 10 µM amounted to 50.4%.

`COc1cc(CN2CCNCC2)c2ccn(S(=O)(=O)c3cccc(Cl)c3C)c2c1` [CBK144484T]: in data set [1], the activity at 1 µM came out at 113%, the activity at 5 µM was 109% and the activity at 10 µM was 57.5%. Also, the viability at 28.5 h, 10 µM in “in vitro [2]” turned out to be 87.1%. In the data set “in vitro [3]”, the viability at 28.5 h, 1 µM was determined as 104%; the viability at 28.5 h, 5 µM is 95.7%; the viability at 28.5 h, 10 µM is 102%. Also, in data set [4], the activity at 1 µM turned out to be 90.6%, the activity at 5 µM worked out at 59.5% and the activity at 10 µM was 23.3%.

Turning to `CC(Nc1cccc2ccccc12)C(=O)N/N=C/c1ccc(O)cc1O` (centres unmarked) [CBK262681], in data set [1], the activity at 1 µM is 103%, the activity at 5 µM was 62.9% and the activity at 10 µM was 42.4%. The viability at 28.5 h, 10 µM in the data set “in vitro [2]” was found to be 75.9%. Also, in “in vitro [3]”, the viability at 28.5 h, 1 µM was 89.9%; the viability at 28.5 h, 5 µM is 86.9%; the viability at 28.5 h, 10 µM was 82.2%. Besides, in data set [4], the activity at 1 µM worked out at 91.4%, the activity at 5 µM stood at 46.9% and the activity at 10 µM was 24.5%.

Regarding `CC1=NN(c2ccccc2)C(=O)/C1=C/Nc1ccc(S(=O)(=O)Nc2nc(C)cc(C)n2)cc1` [CBK262368], in data set [1], the activity at 1 µM was determined as 46.9%, the activity at 5 µM came to 21% and the activity at 10 µM was determined as 13.7%. In addition, the viability at 28.5 h, 10 µM in “in vitro [2]” worked out at 106%. Also, in “in vitro [3]”, the viability at 28.5 h, 1 µM was found to be 96.6%; the viability at 28.5 h, 5 µM worked out at 93.9%; the viability at 28.5 h, 10 µM was 96.8%. Moreover, in data set [4], the activity at 1 µM was 70.2%, the activity at 5 µM turned out to be 28.2% and the activity at 10 µM was 14.1%.

As for `NCc1ccc2cccc(O)c2n1` [CBK001376T], in data set [1], the activity at 1 µM came to 80.5%, the activity at 5 µM turned out to be 19.7% and the activity at 10 µM was 1.06%. The viability at 28.5 h, 10 µM in “in vitro [2]” came out at 85.6%. In addition, in “in vitro [3]”, the viability at 28.5 h, 1 µM stood at 109%; the viability at 28.5 h, 5 µM is 112%; the viability at 28.5 h, 10 µM came to 110%. Besides, in data set [4], the activity at 1 µM came to 66.3%, the activity at 5 µM was 31.4% and the activity at 10 µM was found to be 6.97%.

`Cc1ccc(S(=O)(=O)Nc2cc(SCC(=O)O)c(O)c3ccccc23)cc1` [CBK265708]: in data set [1], the activity at 1 µM was 92.1%, the activity at 5 µM was determined as 51.3% and the activity at 10 µM came out at 33%. In addition, the viability at 28.5 h, 10 µM in the data set “in vitro [2]” was 87.1%. Also, in “in vitro [3]”, the viability at 28.5 h, 1 µM is 103%; the viability at 28.5 h, 5 µM came out at 99.6%; the viability at 28.5 h, 10 µM stood at 97.8%. For the same compound, in data set [4], the activity at 1 µM is 75.1%, the activity at 5 µM was 34.7% and the activity at 10 µM is 13.4%.

`CCc1nnc(NS(=O)(=O)c2ccc(N/C=C\C(=O)c3ccc4ccccc4c3)cc2)s1` [CBK263385]: in data set [1], the activity at 1 µM is 109%, the activity at 5 µM was 23.6% and the activity at 10 µM worked out at 24%. The viability at 28.5 h, 10 µM in the data set “in vitro [2]” amounted to 91.4%. In “in vitro [3]”, the viability at 28.5 h, 1 µM is 93.6%; the viability at 28.5 h, 5 µM came to 95.1%; the viability at 28.5 h, 10 µM turned out to be 88.7%. For the same compound, in data set [4], the activity at 1 µM came to 110%, the activity at 5 µM stood at 33.1% and the activity at 10 µM is 19.1%.

For `Fc1cccc(F)c1OCCOc1nc(N2CCNCC2)ccc1C(F)(F)F` [CBK003977A], in data set [1], the activity at 1 µM worked out at 86.2%, the activity at 5 µM came to 37.8% and the activity at 10 µM was found to be 27.8%. Besides, in the data set “in vitro [2]”, the viability at 28.5 h, 10 µM is 87%. For the same compound, in “in vitro [3]”, the viability at 28.5 h, 1 µM is 92.3%; the viability at 28.5 h, 5 µM came to 90.5%; the viability at 28.5 h, 10 µM was determined as 89.4%. Besides, in data set [4], the activity at 1 µM was found to be 53.4%, the activity at 5 µM stood at 9.38% and the activity at 10 µM came out at 1.96%.

Regarding `COc1ccc([C@@]23CC[C@@H](Nc4nc(-c5ccc(Br)cc5)cs4)C[C@@H]2N(C)CC3)cc1OC` [CBK036543], in data set [1], the activity at 1 µM is 138%, the activity at 5 µM was determined as 104% and the activity at 10 µM is 94.2%. Also, the viability at 28.5 h, 10 µM in the data set “in vitro [2]” is 87.7%. Also, in the data set “in vitro [3]”, the viability at 28.5 h, 1 µM was 91.3%; the viability at 28.5 h, 5 µM worked out at 91%; the viability at 28.5 h, 10 µM was 109%. In data set [4], the activity at 1 µM was 76.2%, the activity at 5 µM turned out to be 68.6% and the activity at 10 µM was 45.2%.

As to `COc1c(Br)cc2c(cc(C)n2-c2ccccc2)c1OCC(O)CNC(C)C` (centres unmarked) [CBK263516], in data set [1], the activity at 1 µM came out at 6.43%, the activity at 5 µM is 9.2% and the activity at 10 µM amounted to 7.41%. In addition, the viability at 28.5 h, 10 µM in the data set “in vitro [2]” was found to be 93.8%. In addition, in the data set “in vitro [3]”, the viability at 28.5 h, 1 µM worked out at 99.6%; the viability at 28.5 h, 5 µM is 83%; the viability at 28.5 h, 10 µM was found to be 91.3%. In data set [4], the activity at 1 µM was 1.64%, the activity at 5 µM was 0.762% and the activity at 10 µM came to 0.887%.

`O=C(Nc1cc(Cl)nc(Cl)c1)N(Cc1ccc2ccccc2c1)CC1CCNCC1` [CBK049773]: in data set [1], the activity at 1 µM was determined as 131%, the activity at 5 µM turned out to be 84.2% and the activity at 10 µM turned out to be 61.7%. Besides, in the data set “in vitro [2]”, the viability at 28.5 h, 10 µM is 105%. In addition, in the data set “in vitro [3]”, the viability at 28.5 h, 1 µM amounted to 95.5%; the viability at 28.5 h, 5 µM turned out to be 95.6%; the viability at 28.5 h, 10 µM came to 96.4%. Moreover, in data set [4], the activity at 1 µM was found to be 120%, the activity at 5 µM is 75.2% and the activity at 10 µM was determined as 44.5%.

As to `O=C1C(NCCO)=C(Nc2cccc(Cl)c2)C(=O)c2ccccc21` [CBK264323], in data set [1], the activity at 1 µM stood at 93%, the activity at 5 µM was 48.6% and the activity at 10 µM worked out at 35.5%. Also, the viability at 28.5 h, 10 µM in “in vitro [2]” stood at 91.7%. For the same compound, in the data set “in vitro [3]”, the viability at 28.5 h, 1 µM was found to be 102%; the viability at 28.5 h, 5 µM is 98.6%; the viability at 28.5 h, 10 µM was 88.4%. Moreover, in data set [4], the activity at 1 µM turned out to be 90.7%, the activity at 5 µM was found to be 34.6% and the activity at 10 µM was 14.8%.

(Values after PMC12040169 (PLOS Biology, 2025).)
